# Measured values from patent publication US20190216889A1, “METHODS AND COMPOSITIONS FOR TREATMENT OF FIBROSIS” (Children's Hospital Medical Center, priority 2018, published 2019).
# Entries after “also recorded” stand apart in the source; their conditions may differ. Where no end group is shown, it is not given here.
# Tests used:
# [1] = test system: unilateral ureteral obstruction (UUO); details: obstructive model of kidney injury; cited from earlier work
# [2] = test system: murine model of unilateral renal ischemia/reperfusion (UIR); experiment: Unilateral renal ischemia/reperfusion (UIR) with daily i.p. peptide from day 7, tissues collected day 14; format: in vivo, C57BL6/J mice
# Protocol: Starting seven days after surgery, pUR4 (25 mg/kg/d), III-11C (control; 25 mg/kg/d) or PBS were administered daily by intraperitoneal injection. Mice were sacrificed and tissues collected 14 days after surgery.
# All procedures were approved by and performed according to the Department of Laboratory Animal Medicine and the Institutional Animal Care and Use Committee at the Cincinnati Children's Hospital Medical Center. Wild type C57BL6/J 9-10-week-old male mice (Jackson Laboratories) were used for these experiments.
# Mice were allowed 1-2 weeks of acclimation upon arrival to the animal facility, after which they underwent unilateral ischemia/reperfusion (UIR) according to Le Clef et al., 2016.17 Briefly, mice were anesthetized with 3% isoflurane for surgical prep (abdominal hair removal, animal identification, etc.), and maintained at 1.5% isoflurane on a 37° C. heating pad throughout the procedure. Following surgical exposure of the ventral abdomen, an atraumatic clamp was placed on the left renal artery and vein for 30 minutes; verification of color change following reperfusion was performed by the surgeon before mice were sutured and glued (outer suture reinforcement), given buprenorphine and subcutaneous saline and returned to their cages. For each animal, the contralateral (right) kidney and renal blood vessels were visualized, but remained untouched. Sham animals underwent an identical surgical procedure, except that the left and right renal arteries and veins were exposed, but were not clamped. Seven (7) days after surgery, mice were weighed and randomly assigned to daily intraperitoneal (i.p.) injections of PBS, III-11C (control peptide; 25 mg/kg), or pUR4 (25 mg/kg).
# 14 days after UIR (7 days after the onset of daily peptide injections), mice were given 100U heparin and anesthetized with isoflurane; blood was collected and animals were perfused with cold PBS through the aortic arch. Kidneys were excised (and the capsule membrane carefully removed), weighed, and then bisected lengthwise; one half was placed in cold 4% paraformaledhyde overnight followed by paraffin embedding, the other half cut into ˜1 mm3 pieces and flash-frozen for RNA and protein isolation.
# Fixed kidneys were paraffin embedded, sectioned at 8 μm and mounted onto glass slides. Prior to staining, the sections were deparaffinized in xylene and rehydrated to water through increasing dilutions of ethanol (100%, 95%, 70%, and then 50%). For picrosirius red staining, slides were incubated for 1 hour in 0.1% Sirius Red (in 1.3% aqueous picric acid), washed twice in acidified water (0.5% acetic acid), […] and mounted with Permount. Images were taken at 10× and 40× (Olympus BX-51 with a DS-Ril camera), and the percentage of red staining was quantified using Image J software (NIH) by two observers blinded to experimental conditions.
# For immunofluorescent staining, deparaffinized and rehydrated sections were microwaved for 20 minutes in a sodium citrate antigen retrieval solution (Vector H-3300), and then permeabilized in 0.06% triton-X in TBS. Sections were blocked in 10% goat or donkey serum (depending on the secondary antibody) in TBS for 2 hours at room temperature, and then incubated with primary antibody in 1% serum/TBS overnight at 4° C. Antibodies used were as follows: lipocalin-2/NGAL (1:100; JM-3819, MBL Intl Corp), Tim1/Kim1 (1:100; AF1817, R&D Systems), CD45 (1:100; AF114, R&D Systems), fibronectin (1:100; ab2413, Abcam), collagen I (1:100; ab21286, Abcam), vimentin (1:100; ab45939, Abcam), alpha-smooth muscle actin (1:500; A5228, Sigma). Slides were then washed three times in TBST for 5 min each, and incubated with secondary antibodies for 45 minutes at room temperature. In these experiments the following secondary antibodies were used, all from Jackson ImmunoResearch: donkey anti-rabbit 488 (711-545-152), donkey anti-goat 488 (705-545-147), donkey anti-mouse 647 (715-605-150) and donkey anti-rabbit 647 (711-605-152). […]
# vascular remodeling = details: localized pUR4 treatment; cited from earlier work
# [3] = test system: myocardial ischemia/reperfusion (I/R) injury; details: cited from earlier work
# liver fibrosis = details: localized pUR4 treatment; cited from earlier work
# [4] = target: fibronectin polymerization (Homo sapiens, UniProt P02751); details: in vitro; cited from earlier work
# fibronectin polymerization, sequence (P02751 32-2477): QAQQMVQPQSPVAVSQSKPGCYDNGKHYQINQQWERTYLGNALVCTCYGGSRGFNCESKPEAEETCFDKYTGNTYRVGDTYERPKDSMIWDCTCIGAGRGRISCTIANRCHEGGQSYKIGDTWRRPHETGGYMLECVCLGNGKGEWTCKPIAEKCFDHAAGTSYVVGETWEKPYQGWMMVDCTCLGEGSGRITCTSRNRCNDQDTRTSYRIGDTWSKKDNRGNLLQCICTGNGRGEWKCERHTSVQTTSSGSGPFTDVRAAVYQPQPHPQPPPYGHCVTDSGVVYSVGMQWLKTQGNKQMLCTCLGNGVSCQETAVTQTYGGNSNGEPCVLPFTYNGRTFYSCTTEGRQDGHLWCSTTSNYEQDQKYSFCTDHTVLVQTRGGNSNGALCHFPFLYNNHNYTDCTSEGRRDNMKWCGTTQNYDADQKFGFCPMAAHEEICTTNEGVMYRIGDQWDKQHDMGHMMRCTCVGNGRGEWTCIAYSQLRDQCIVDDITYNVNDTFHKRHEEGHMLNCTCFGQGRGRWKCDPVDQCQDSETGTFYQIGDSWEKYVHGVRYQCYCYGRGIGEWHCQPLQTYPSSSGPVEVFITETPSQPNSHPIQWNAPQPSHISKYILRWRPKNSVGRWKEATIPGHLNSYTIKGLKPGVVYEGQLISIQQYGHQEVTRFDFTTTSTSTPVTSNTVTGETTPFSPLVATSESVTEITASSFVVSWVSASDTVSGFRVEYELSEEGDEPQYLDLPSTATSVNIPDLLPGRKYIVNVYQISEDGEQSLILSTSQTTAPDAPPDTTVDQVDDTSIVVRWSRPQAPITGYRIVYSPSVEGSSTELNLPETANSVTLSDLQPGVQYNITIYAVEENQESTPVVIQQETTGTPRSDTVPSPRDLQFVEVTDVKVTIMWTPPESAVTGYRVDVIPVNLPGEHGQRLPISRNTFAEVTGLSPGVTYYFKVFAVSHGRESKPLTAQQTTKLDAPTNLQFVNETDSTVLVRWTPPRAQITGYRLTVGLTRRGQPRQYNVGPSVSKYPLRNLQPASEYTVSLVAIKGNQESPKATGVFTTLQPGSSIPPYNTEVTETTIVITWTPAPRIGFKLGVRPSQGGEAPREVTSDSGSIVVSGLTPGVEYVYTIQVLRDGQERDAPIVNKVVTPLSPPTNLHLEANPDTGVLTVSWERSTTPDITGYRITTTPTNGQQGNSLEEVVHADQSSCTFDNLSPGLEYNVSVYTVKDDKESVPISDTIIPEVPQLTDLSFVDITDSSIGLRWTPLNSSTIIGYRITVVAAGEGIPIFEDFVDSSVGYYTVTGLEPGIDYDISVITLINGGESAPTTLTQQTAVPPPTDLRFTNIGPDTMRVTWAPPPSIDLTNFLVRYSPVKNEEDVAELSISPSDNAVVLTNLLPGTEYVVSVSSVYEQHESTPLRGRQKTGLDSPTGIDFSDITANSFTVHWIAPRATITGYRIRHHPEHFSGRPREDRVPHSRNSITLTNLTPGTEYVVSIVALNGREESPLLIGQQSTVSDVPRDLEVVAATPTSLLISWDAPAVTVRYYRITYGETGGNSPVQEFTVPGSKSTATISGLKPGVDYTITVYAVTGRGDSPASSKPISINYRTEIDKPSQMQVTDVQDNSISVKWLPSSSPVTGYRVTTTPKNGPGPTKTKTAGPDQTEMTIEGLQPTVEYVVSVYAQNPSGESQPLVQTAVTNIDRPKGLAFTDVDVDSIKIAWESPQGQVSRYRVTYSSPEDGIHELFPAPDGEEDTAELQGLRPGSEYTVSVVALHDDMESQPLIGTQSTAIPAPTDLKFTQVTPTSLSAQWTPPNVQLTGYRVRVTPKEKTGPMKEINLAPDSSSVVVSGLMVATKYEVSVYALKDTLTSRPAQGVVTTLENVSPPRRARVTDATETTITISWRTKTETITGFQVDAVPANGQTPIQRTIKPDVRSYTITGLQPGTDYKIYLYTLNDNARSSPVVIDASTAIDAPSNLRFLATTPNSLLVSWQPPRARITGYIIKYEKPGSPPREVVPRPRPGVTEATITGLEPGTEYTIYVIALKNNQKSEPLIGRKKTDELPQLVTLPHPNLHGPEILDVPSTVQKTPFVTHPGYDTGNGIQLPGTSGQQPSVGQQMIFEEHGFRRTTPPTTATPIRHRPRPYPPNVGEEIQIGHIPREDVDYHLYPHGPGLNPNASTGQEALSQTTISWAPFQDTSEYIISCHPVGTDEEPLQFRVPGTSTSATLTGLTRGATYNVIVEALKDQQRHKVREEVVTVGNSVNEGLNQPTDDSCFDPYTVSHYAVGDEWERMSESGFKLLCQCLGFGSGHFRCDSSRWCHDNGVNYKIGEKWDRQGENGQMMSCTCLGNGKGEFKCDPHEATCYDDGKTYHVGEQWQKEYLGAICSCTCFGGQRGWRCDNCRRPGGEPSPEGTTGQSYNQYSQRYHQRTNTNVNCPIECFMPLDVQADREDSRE
# [5] = 2 weeks after UIR, 25 mg/kg/d, 25 mg/kg/day
# [6] = 14 days after UIR, 25 mg/kg/d, 25 mg/kg/day
# [7] = injured kidney, 2 weeks after UIR, 25 mg/kg/d, 25 mg/kg/day
# [8] = injured vs contralateral kidney, 14 days after UIR, 25 mg/kg i.p. daily from day 7, 25 mg/kg
# [9] = kidney, 2 weeks after UIR, 25 mg/kg/d
# [10] = one week systemic daily administration, up to four weeks after I/R
sequence,measurement,setting,value
CKDQSPLAGESGETEYITEVYGNQQNPVDIDKKLPNETGFSGNMVETEDT (also: His tag) [pUR4],fibrosis,[1],attenuate fibrosis
same,kidney weight / kidney weight-to-body weight ratio,[2]; [5],partially restored; also recorded: significantly recovered
same,"mature fibrillar collagen, second harmonic generation (SHG)",[2]; [5],alleviation of fibrotic collagen deposition; also recorded: decreased kidney fibrosis
same,"collagen deposition and maturation, picrosirius red staining (brightfield and polarized light)","[2]; 2 weeks after UIR, pUR4 vs III-11C, 25 mg/kg/d",decreased; also recorded: attenuated
same,"periglomerular fibrosis (fibronectin, α-SMA and vimentin surrounding glomeruli)","[2]; 14 days after UIR, 25 mg/kg/d",reduced periglomerular fibrosis
same,"alpha-smooth muscle actin (α-SMA) expression / positive cells, immunostaining",[2]; [6],abrogated; also recorded: diminished
same,"collagen I deposition, immunofluorescence",[2]; [6],reduces this expansion; also recorded: concomitant decrease
same,"fibronectin deposition in kidney interstitium, immunofluorescence",[2]; [6],reduces this expansion; also recorded: decreased the amount of fibronectin
same,"vimentin expression / expansion of vimentin-positive cells outside the glomerulus, immunostaining",[2]; [6],abrogated; also recorded: diminished
same,"CD45+ immune cell accumulation, immunostaining",[2]; [7],abrogated
same,"tubule damage and cellular infiltration, H&E staining",[2]; [7],abrogates; also recorded: decrease in cellular infiltrate and reduced tubule damage
same,"Havcr1 transcript expression, qPCR of kidney lysates",[2]; [8],nearly abolished; also recorded: significantly reduced
same,"lipocalin-2 (Lcn-2) transcript expression, qPCR of kidney lysates",[2]; [8],nearly abolished; also recorded: significantly reduced
same,"NGAL (lipocalin-2) protein expression, immunofluorescent staining",[2]; [9],decreased
same,"Tim-1/Kim-1 (Havcr1) protein expression, immunofluorescent staining",[2]; [9],decreased
same,effect of injection in animals that underwent sham surgery,"[2]; sham surgery, PBS vs III-11C vs pUR4",no differences were observed
same,excess ECM deposition,vascular remodeling,attenuates
same,deposition of ECM proteins,[3]; after myocardial I/R,attenuated
same,neutrophil infiltration,[3]; after myocardial I/R,reduced
same,proliferation of activated cardiac myofibroblasts,[3]; after myocardial I/R,reduced
same,cardiac function,[3]; [10],improves
same,pathologic fibrosis and cardiac remodeling,[3]; [10],decreases
same,excess ECM deposition,liver fibrosis,attenuates
same,fibronectin polymerization,[4],inhibit
same,fibronectin production or secretion,[4],not its production or secretion
